In paper PMC4585962, “A peptide factor secreted by Staphylococcus pseudintermedius exhibits properties of both bacteriocins and virulence factors” (Scientific Reports, 2015):
No end group written: not given here. *: point of attachment. For = O=C*

Key:
HSF cells = experiment: Cell membrane integrity, propidium iodide / FDA fluorescence microscopy; assay type: cell-based, human; conditions: media contained 0.5 or 15 μM BacSp222 (concentration of these values not stated), three independent experiments ± SD
E. coli DH5α (pALCP2G) = experiment: GFP release assay; assay type: cell-based, Escherichia coli; conditions: 2 × 10^6 CFU in PBS, 1 h 37 °C, 0.23 to 15 μM BacSp222, fluorescence of supernatant 480/510 nm
Description: (§1) The bacteria transformed with GFP-encoding plasmids (pCN68[59] for S. aureus RN4220; pALCP2G[60] for B. subtilis 1A751[61] and E. coli DH5α) were grown overnight in TSB supplemented with appropriate antibiotics, washed twice and finally suspended in PBS. Fifty microliters of the suspensions containing 2 × 10^6 CFU of bacteria were then incubated for 1 h at 37 °C with serial dilutions of BacSp222 at concentrations ranging from 0.23 to 15 μM. Then, the bacteria were spun down, and the fluorescence in the supernatant was determined (Synergy H1 microplate reader, BioTek, 480/510 nm excitation/emission wavelengths). As the controls for 100% GFP release, S. aureus and B. subtilis were lysed using lysostaphin and chicken egg white lysozyme (Sigma), respectively, whereas the E. coli cells were disrupted by ultrasonication.

P388D1 cells = experiment: NO synthesis (nitrite, Griess reagent); assay type: cell-based, murine; conditions: 24 h
Description: (§2) The murine monocyte/macrophage cell line P388/D1 and murine macrophage-like cell line RAW264.7 were grown in a 96-well plate in DMEM supplemented with 5% (v/v) FBS. Prior to the experiment, the medium was replaced with fresh DMEM enriched with 2% (v/v) of FBS (negative control) or supplemented with 1) 100 ng/ml lipopolysaccharide (LPS, Sigma), 2) 10 ng/ml IFN [drawing 9] (R&D Systems), 3) 0.01–1000 nM BacSp222, or 4) BacSp222 combined with LPS or IFN [drawing 10] . The cells were then cultured for another 24 h to induce iNOS expression and nitric oxide synthesis. The nitrite levels were measured in culture medium by a nitrate assay performed on a microplate. One hundred microliters of cultured media was incubated with 100 μl of Griess reagent (1% (w/v) sulphanilic acid/0.1% (w/v) N-(1-naphtyl) ethylenediaminedihydrochloride (Sigma) in 2.5% (v/v) H3PO4) at room temperature for 10 min. Then, the absorbance was measured at 545 nm using a microplate reader (PowerWave X, BioTek Instruments). Before use, the solution of BacSp222 was tested for LPS contamination using an E-TOXATE assay kit (Sigma). The measurements ascertained that the level of LPS in 1 μM bacteriocin solution was equal to or less than 3 pg/ml.

RAW264.7 cells = experiment: NO synthesis (nitrite, Griess reagent); assay type: cell-based, murine; conditions: 24 h
Description: as §2

B. subtilis = experiment: Bactericidal test, plating on TSA after incubation; assay type: cell-based, Bacillus subtilis; conditions: 1 × 10^4 CFU incubated with 1 μM bacteriocin for 30 minutes (data not shown)
S. aureus RN4220 (pCN68) = experiment: GFP release assay; assay type: cell-based, Staphylococcus aureus; conditions: 2 × 10^6 CFU in PBS, 1 h 37 °C, 0.23 to 15 μM BacSp222, fluorescence of supernatant 480/510 nm
Description: as §1

HeLa cells = experiment: Cytotoxicity, LDH and MTT assays; assay type: cell-based, human; conditions: 4 h exposure, said to be similar to the other cell types (Fig. S7)
Description: Human skin fibroblasts (HSF, ATCC CRL-2522), adipose-derived stem cells (ASCs, ATCC PCS-500-011), and HeLa human epithelioid cervix carcinoma cells (ATCC CCL-2) were maintained in Dulbecco’s modified Eagle’s medium (DMEM, Sigma) containing 1 g/l glucose, 10% (v/v) foetal bovine serum (FBS), 1 U/ml penicillin, 1 μg/ml streptomycin, and 2.5 μg/ml amphotericin B. Murine P388/D1 monocyte/macrophage cells (ATCC CCL-46) and murine RAW264.7 macrophage-like cells (ATCC TIB-71) were cultured in DMEM containing 4.5 g/l glucose, 5% (v/v) FBS, and antibiotics, as indicated above. Keratinocytes from human skin were grown in KBM Gold Medium (Lonza). All cells were incubated in standard conditions (5% CO2, 37 °C, >95% humidity). […] After a 30-min incubation (RT, in the dark), the reaction was stopped, and the absorbance was measured with a microplate reader (PowerWave X, BioTek Instruments) at 490 nm, followed by subtraction of the absorbance reference value at 690 nm. […] The absorbance of solubilized purple formazan was measured at 540 nm, followed by subtraction of the absorbance reference value at 690 nm. […] The amount of released haemoglobin was spectrophotometrically determined at 540 nm and compared with a positive control (erythrocytes lysed with 1% sodium dodecyl sulphate).

[1] = 0.01–1000 nM BacSp222 with LPS 100 ng/ml
[2] = nanomolar concentrations of BacSp222 with IFNγ 10 ng/ml

For-MAGLLRFLLSKGRALYNWAKSHVGKVWEWLKSGATYEQIKEWIENALGWR [BacSp222]
PI-positive cells (HSF cells; 0.5 hours of incubation): 39 ± 13.5%
PI-positive cells (HSF cells; 2 hours of incubation): 74 ± 6.7%
PI-positive cells (HSF cells; 4 hours of incubation): 97 ± 3.7%
leakage of GFP from recombinant cells (E. coli DH5α (pALCP2G)): not
effect on LPS-induced NO production (P388D1 cells; [1]): did not affect
NO production after exposure to BacSp222 alone (P388D1 cells; at 100 and 1000 nM, DMEM 2% FBS, nitrite at 545 nm): able to produce NO
NO release with BacSp222 together with IFNγ (P388D1 cells; [2]): released NO in a dose-dependent manner
effect on LPS-induced NO production (RAW264.7 cells; [1]): did not affect
NO production after exposure to BacSp222 alone (RAW264.7 cells; 0.01–1000 nM, DMEM 2% FBS, nitrite at 545 nm): Only P388D1 cells were able to produce NO
NO release with BacSp222 together with IFNγ (RAW264.7 cells; [2]): released NO in a dose-dependent manner
colonies after plating on TSA (B. subtilis): complete absence of the colonies
leakage of GFP from recombinant cells (S. aureus RN4220 (pCN68)): dose-dependent leakage of GFP was observed
cytotoxic effect (HeLa cells): sigmoidal, dose-dependent cytotoxic effect
